Data from patent US5925668A, “Thioctic metabolites and methods of use thereof” (priority 1998, dated 1999).
Values belong to the molecule of their own block, whether it stands above or below them.

Legend:
[1] = Plasma pharmacokinetics and metabolism of lipoic acid after oral administration of 1 gram R-lipoic acid to a healthy volunteer (HPLC/ECD); assay type: in vivo, human
Experimental: The HPLC system consisted of a pump (thermo separation products, Spectra SERLES P100,Breda, the Netherlands), an auto-injector (Gilson, Meyvis, model 232 XL, Bergen op Zoom, the Netherlands) with a […] sample loop and a dilutor (Gilson, Meyvis, model 401 C, Bergen op Zoom, the Netherlands). The system was equipped with an electrochemical detector (Coulochem ESA, model 5100 A, Interscience, Breda, the Netherlands) and an analytical cell (ESA, model 5010). Interscience, Breda, the Netherlands) which consisted of two cell compartments.
The separations were performed using a Hypersil C 18 column (125 mm×4.6 mm i.d., […] particle size) and a mobile phase of phosphate buffer (50 mM KH2 PO4 /H3 PO4, pH 2.7) and acetonitrile (65:35, v/v). Before use, the eluent was vacuum filtrated over a […] filter. The flow rate was 0.7 ml/min.
Sample Collection and Preparation
(§1) To a healthy volunteer (82 kg), who fasted overnight, 1 gram of R-lipoic acid (4 capsules of 250 mg) was administered orally. At several time points (0-5 hr), blood samples of 3 ml were taken from a venous cannula into Li-heparine containing tubes. The samples were centrifuged (2000 g at 4° C. for 5 min) and the plasma was analyzed immediately. The proteins in the plasma were precipitated by adding 1 ml ethanol and […] 85% (g/g) H3 PO4 to […] plasma. Thereafter, the sample was thoroughly mixed on a vortex mixer and placed on ice. After 15 min it was centrifuged at 2000 g for 10 min at 4° C. […] of the supernatant were brought onto the column. Quality control samples were prepared by spiking plasma with a small volume (less than 1%) of an ethanol solution of the compound.
For the elucidation of the structure of the metabolites, the plasma obtained at 69, 92 and 119 min was pooled (approximate total volume was 3 ml). The pooled plasma was acidified with 3 ml 3 M sulfuric acid. Thereafter, the sample was extracted twice with 12 ml HPLC-grade ethylacetate (Baker Phillipsburg, N.J.). After evaporation of the ethylacetate the compounds were methylated with diazomethane for 30 min at room temperature. Subsequently, the compounds were dissolved in […] ethanol. A volume of […] was injected on a GC/MS system using a split injection ratio of 1/15. The instrument used was a HP 5890 GC equipped with a HP 5970 mass selective detector. Gas chromatography was performed on a CPSil 5 CB WCOT capillary column (25 m, […] i.d., […]; Chrompack, Middelburg, the Netherlands). While the temperature of the injector and transfer line were kept at 250° C., two oven temperature programs were required to obtain satisfactory separation of all lipoic acid related components from endogenous plasma components. The oven temperature was programmed from 60° C. (kept for 2 min) to 180° C. (at 20° C./min) with an isothermal period (10 min) and subsequent temperature increase to 288° C. (at 20° C./min) and another isothermal period; this produced satisfactory results for all components except bisnorlipoic acid. Bisnorlipoic acid could be separated from background components by using a program from 60° C. (kept for 2 min) to 160° C. (at 20° C./min with an isothermal period (15 min) and subsequent raise to 288° C. (at 20° C./min). Detection was performed by using 70 eV impact ionization.
The Pharmocokinetic Analysis
A volunteer was given 1 gram R-lipoic acid. […] Somewhat later, an unknown metabolite was observed which eluted at 5.5 min (peak nr. 6 in FIG. 2). Thereafter, a second unknown appeared which eluted at 4.7 min (peak nr. 5 in FIG. 2). Subsequently, ca. 45 after administration, bisnorlipoic acid could be detected (peak nr. 4 in FIG. 2). […] The time course of the plasma concentrations of lipoic acid, the two unknown metabolites and bisnorlipoic acid are shown in FIG. 3. Around 45 min a maximum in the lipoic acid concentration is reached. At 75 min a diet containing a high amount of fat was consumed. […]

human cells in culture = conditions: cited from earlier work
[2] = assay type: in vitro ADME
Experimental: as §1
The stability of lipoic acid in plasma was evaluated by spiking plasma at 0.5 mg/ml and storing it at -25° C. […]
The stability of dihydrolipoic acid in plasma was also evaluated by spiking plasma at 0.5 mg/ml and storing it at -25° C. After approximately 20 hours, ca. 6% of the theoretical value was detected. […] Lipoic acid was also detected in the quality control samples of dihydrolipoic acid used for determination of the accuracy and precision. […] This means that the sample is immediately analyzed after blood sampling, and the pH is reduced to increase the stability of thiols. […]

human erythrocytes = conditions: cited from earlier work
[3] = Stability in aqueous solutions; assay type: physicochemical; conditions: compared to plasma

- time of maximum plasma concentration ([1]; human, in vivo, po): 119 min
Compound: O=C(O)CC(=O)CCC1CCSS1 (centres unmarked) [3-ketolipoic acid]
- order of reaching maximal plasma level ([1]; human, in vivo, po): reaches its maximum plasma level just before bisnorlipoic acid reaches its maximum

Compound: O=C(O)CCCC[C@@H]1CCSS1 (racemic) [lipoic acid, 1,2-dithiolane-3-pentanoic acid]
- reduction of lipoic acid into dihydrolipoic acid (human cells in culture): reduction of lipoic acid was shown
- stability in plasma [2]: stable in plasma for at least one week
- free plasma concentration before administration ([1]; human, in vivo): < 7.8 ng/mL
- Cmax ([1]; human, in vivo, po): 1150 ng/mL
- half life ([1]; human, in vivo, po): 0.933 h
- time of first appearance in plasma ([1]; human, in vivo, po): 30 min
- half-life ([1]; human, in vivo, po, half life): ~1 h
- Tmax ([1]; human, in vivo, po, time of (first) maximum in plasma concentration): ~0.75 h
- Tmax ([1]; human, in vivo, po, time of maximum plasma concentration): 1.53 h
- elimination kinetics ([1]; oral 1 gram R-lipoic acid): first order kinetics
- presence in plasma after three hours ([1]; oral 1 gram R-lipoic acid): essentially absent from the plasma
- time of first appearance in plasma ([1]; oral 1 gram R-lipoic acid): Thirty minutes
- reduction of lipoic acid into dihydrolipoic acid (human erythrocytes): reduction of lipoic acid was shown

- stability in aqueous solutions [3]: more stable
Compound: O=C(O)CCCC[C@@H](S)CCS (racemic) [dihydrolipoic acid]

Compound: O=C(O)C1CCSS1 (centres unmarked) [tetranorlipoic acid]
- detection in plasma after administration ([1]; human, in vivo, po): Neither dihydrolipoic acid nor tetranorlipoic acid were found

- time of first detection in plasma ([1]; human, in vivo, po): ca. 45
- time of maximum plasma concentration ([1]; human, in vivo, po): 189 min
Compound: O=C(O)CCC1CCSS1 (centres unmarked) [bisnorlipoic acid]

Compound: O=C(O)CC(O)CCC1CCSS1 (centres unmarked) [3-hydroxylipoic acid]
- order of reaching maximal plasma level ([1]; human, in vivo, po): reaches its maximal level before the compound from peak 6 reaches maximum
